Laboratory results from patent publication US8399478B2 (Vertex Pharmaceuticals Incorporated, priority 2006, dated 2013).

target: T1, Plk1 (Homo sapiens, UniProt P53350); assay: Plk1 inhibition assay (radioactive-phosphate incorporation); assay type: biochemical; conditions: Ki(app) from initial rate data
T1 construct: in the presence of 15 nM Plk1 (A20-K338)
Description: The compounds of the present invention are evaluated as inhibitors of human PLK kinase using the following assays.
(§1) Compounds were screened for their ability to inhibit Plk1 using a radioactive-phosphate incorporation assay. Assays were carried out in a mixture of 25 mM HEPES (pH 7.5), 10 mM MgCl2, and 1 mM DTT. […] An assay stock buffer solution was prepared containing all of the reagents listed above, with the exception of ATP and the test compound of interest. […] The plate was pre-incubated for 10 minutes at 25° C. and the reaction initiated by addition of 8 μL [γ-33 P]ATP (final concentration 50 μM).
(§2) The reaction was stopped after 60 minutes by the addition of 100 μL 0.14M phosphoric acid. A multiscreen phosphocellulose filter 96-well plate (Millipore, Cat no. MAPHN0B50) was pretreated with 100 μL 0.2M phosphoric acid prior to the addition of 125 μL of the stopped assay mixture. The plate was washed with 4×200 μL 0.2M phosphoric acid.
After removing mean background values for all of the data points, Ki(app) data were calculated from non-linear regression analysis of the initial rate data using the Prism software package (GraphPad Prism version 3.0cx for Macintosh, GraphPad Software, San Diego, Calif., USA).
as §1, with “MgCl2, […],” for “MgCl2,”, “and 2” for “and 1”, “μL [γ-33P]ATP” for “μL [γ-33 P]ATP”, “concentration 100” for “concentration 50”
as §2, with “90” for “60”

T1 sequence (P53350 20-338): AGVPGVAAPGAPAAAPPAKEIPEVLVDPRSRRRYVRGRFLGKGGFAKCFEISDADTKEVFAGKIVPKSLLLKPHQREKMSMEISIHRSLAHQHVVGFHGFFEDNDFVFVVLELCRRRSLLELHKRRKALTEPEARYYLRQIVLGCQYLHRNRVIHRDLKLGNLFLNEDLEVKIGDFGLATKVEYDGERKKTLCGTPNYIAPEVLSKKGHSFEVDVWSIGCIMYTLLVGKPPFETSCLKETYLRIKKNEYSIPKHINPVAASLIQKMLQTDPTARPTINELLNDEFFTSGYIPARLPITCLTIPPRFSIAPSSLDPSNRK

Ki	Compound
< 100 nM	CC(Oc1cc(-c2cnn3ccccc23)sc1C(N)=O)c1ccccc1Cl (stereo not shown) [Compound I-2, 3-[1-(2-Chloro-phenyl)-ethoxy]-5-pyrazolo[1,5-a]pyridin-3-yl-thiophene-2-carboxamide]
< 100 nM	COc1cnc2[nH]cc(-c3cc(OC(C)c4ccccc4Cl)c(C(N)=O)s3)c2c1 (stereo not shown) [Compound I-3, 3-[1-(2-Chloro-phenyl)-ethoxy]-5-(5-methoxy-1H-pyrrolo[2,3-b]pyridin-3-yl)-thiophene-2-carboxyamide]
> 1000 nM	CC(Oc1cc(-c2nnc3ccc(N)nn23)sc1C(N)=O)c1ccccc1Cl (stereo not shown) [Compound I-4]
100 to 1000 nM	CC(Oc1cc(-c2cnc3[nH]ccc3c2)sc1C(N)=O)c1ccccc1Cl (stereo not shown) [Compound I-5, 3-[1-(2-Chloro-phenyl)-ethoxy]-5-(1H-pyrrolo[2,3-b]pyridin-5-yl)-thiophene-2-carboxamide]
< 100 nM	C=Cc1cnc2[nH]cc(-c3cc(OC(C)c4ccccc4Cl)c(C(N)=O)s3)c2c1 (stereo not shown) [Compound I-6, 3-(1-(2-chlorophenyl)ethoxy)-5-(5-vinyl-1H-pyrrolo[2,3-b]pyridin-3-yl)thiophene-2-carboxamide]
< 100 nM	CNC(=O)c1ccc2ncc(-c3cc(OC(C)c4ccccc4Cl)c(C(N)=O)s3)n2c1 (stereo not shown) [Compound I-7, 3-(5-carbamoyl-4-(1-(2-chlorophenyl)ethoxy)thiophen-2-yl)-N-methylimidazo[1,2-a]pyridine-6-carboxamide]
< 100 nM	CC(Oc1cc(-c2cnc3ccc(F)cn23)sc1C(N)=O)c1ccccc1Cl (stereo not shown) [Compound I-8, 3-(1-(2-chlorophenyl)ethoxy)-5-(6-fluoroimidazo[1,2-a]pyridin-3-yl)thiophene-2-carboxamide]
< 100 nM	CC(Oc1cc(-c2cnc3cnccn23)sc1C(N)=O)c1ccccc1Cl (stereo not shown) [Compound I-9]
< 100 nM	CC(Oc1cc(-c2cnc3ccc(C(F)(F)F)cn23)sc1C(N)=O)c1ccccc1Cl (stereo not shown) [Compound I-10, 3-(1-(2-chlorophenyl)ethoxy)-5-(6-(trifluoromethyl)imidazo[1,2-a]pyridin-3-yl)thiophene-2-carboxamide]
< 100 nM	CNC(=O)c1ccn2c(-c3cc(OC(C)c4ccccc4Cl)c(C(N)=O)s3)cnc2c1 (stereo not shown) [Compound I-11, 3-(5-carbamoyl-4-(1-(2-chlorophenyl)ethoxy)thiophen-2-yl)-N-methylimidazo[1,2-a]pyridine-7-carboxamide]
< 100 nM	CC(Oc1cc(-c2cnc3cccnn23)sc1C(N)=O)c1ccccc1Cl (stereo not shown) [Compound I-12, 3-(1-(2-chlorophenyl)ethoxy)-5-(imidazo[1,2-b]pyridazin-3-yl)thiophene-2-carboxamide]
< 100 nM	CC(Oc1cc(-c2cnc3cc(C(F)(F)F)ccn23)sc1C(N)=O)c1ccccc1Cl (stereo not shown) [Compound I-13, 3-(1-(2-chlorophenyl)ethoxy)-5-(7-(trifluoromethyl)imidazo[1,2-a]pyridin-3-yl)thiophene-2-carboxamide]
< 100 nM	CCOC(=O)Nc1ccn2c(-c3cc(OC(C)c4ccccc4Cl)c(C(N)=O)s3)cnc2c1 (stereo not shown) [Compound I-14, Ethyl 3-(5-carbamoyl-4-(1-(2-chlorophenyl)ethoxy)thiophen-2-yl)imidazo[1,2-a]pyridin-7-ylcarbamate]
< 100 nM	CC(Oc1cc(-c2cnc3cc(N)ccn23)sc1C(N)=O)c1ccccc1Cl (stereo not shown) [Compound I-15, 5-(7-aminoimidazo[1,2-a]pyridin-3-yl)-3-(1-(2-chlorophenyl)ethoxy)thiophene-2-carboxamide]
> 1000 nM	CNC(=O)c1sc(-c2cnc3ccccn23)cc1OC(C)c1ccccc1Cl (stereo not shown) [Compound I-16, 3-(1-(2-chlorophenyl)ethoxy)-5-(imidazo[1,2-a]pyridin-3-yl)-N-methylthiophene-2-carboxamide]
< 100 nM	CCOC(=O)N(C)c1ccn2c(-c3cc(OC(C)c4ccccc4Cl)c(C(N)=O)s3)cnc2c1 (stereo not shown) [Compound I-17, Ethyl 3-(5-carbamoyl-4-(1-(2-chlorophenyl)ethoxy)thiophen-2-yl)imidazo[1,2-a]pyridin-7-yl(methyl)carbamate]
< 100 nM	COC(=O)N(C)c1ccn2c(-c3cc(OC(C)c4ccccc4Cl)c(C(N)=O)s3)cnc2c1 (stereo not shown) [Compound I-18, Methyl 3-(5-carbamoyl-4-(1-(2-chlorophenyl)ethoxy)thiophen-2-yl)imidazo[1,2-a]pyridin-7-yl(methyl)carbamate]
< 100 nM	COC(=O)Nc1ccn2c(-c3cc(O[C@@H](C)c4ccccc4Cl)c(C(N)=O)s3)cnc2c1 [Compound I-19, (S)-methyl 3-(5-carbamoyl-4-(1-(2-chlorophenyl)ethoxy)thiophen-2-yl)imidazo[1,2-a]pyridin-7-ylcarbamate]
< 100 nM	CCOC(=O)Nc1ccn2c(-c3cc(O[C@@H](C)c4ccccc4Cl)c(C(N)=O)s3)cnc2c1 [Compound I-20, (S)-ethyl 3-(5-carbamoyl-4-(1-(2-chlorophenyl)ethoxy)thiophen-2-yl)imidazo[1,2-a]pyridin-7-ylcarbamate]
< 100 nM	CC[C@H](Oc1cc(-c2cnc3cc(NC(=O)OC)ccn23)sc1C(N)=O)c1ccccc1Cl [Compound I-21, (S)-methyl 3-(5-carbamoyl-4-(1-(2-chlorophenyl)propoxy)thiophen-2-yl)imidazo[1,2-a]pyridin-7-ylcarbamate]
< 100 nM	CCOC(=O)Nc1ccn2c(-c3cc(O[C@@H](CC)c4ccccc4Cl)c(C(N)=O)s3)cnc2c1 [Compound I-22, (S)-ethyl 3-(5-carbamoyl-4-(1-(2-chlorophenyl)propoxy)thiophen-2-yl)imidazo[1,2-a]pyridin-7-ylcarbamate]
< 100 nM	CCOC(=O)Nc1ccn2c(-c3cc(OC(C)(C)c4ccccc4Cl)c(C(N)=O)s3)cnc2c1 [Compound I-25, Ethyl 3-(5-carbamoyl-4-(2-(2-chlorophenyl)propan-2-yloxy)thiophen-2-yl)imidazo[1,2-a]pyridin-7-ylcarbamate]
